Where “and” joins values, the source holds several entries; their conditions need not be identical. Equal values may be shown once.
Columns and labels:
T. cruzi satDNA = assay: In vivo efficacy by qPCR (T. cruzi satDNA) in blood and heart; parameters: species or system Swiss male mice; details: for qPCR on blood samples, parasite DNA amplification: first trial, surviving mice: BZ 25 mg/kg/day, BTZ 45.61 mg/kg/day; for qPCR on blood samples, animals that amplified parasite DNA: second trial, higher doses: BZ 100, BTZ 182.44 mg/kg/day
Method: In vivo efficacy assessments by qPCR evaluations - At the end point, the animals were weighed; euthanised and submitted to cardiac puncture. 500 μL of fresh blood was collected and added to 1 mL of guanidine. The DNA was extracted from 300 μL of guanidine-EDTA blood, using the kit High Pure PCR Template Preparation (Roche diagnostics, Mannhein, Germany), according to the manufacturer's instructions. At the last step of the protocol, DNA was eluted in 100 μL of elution buffer. Also, cardiac tissues were collected, weighed and fragmented using a scalpel, 200 μL of Tissue Lysis Buffer was added and samples immediately placed in Styrofoam with dry ice. Blood and heart tissues were stored in the freezer at […] until analysis by qPCR. Heart tissues were homogenised using a Tissue Homogeneizer (Qiagen). DNA was extracted using the kit High Pure PCR Template Preparation (Roche diagnostics, Mannhein, Germany), according to the manufacturer's instructions for tissue samples. qPCR was done using a TaqMan multiplex assay, targeting T. cruzi […] and mouse GAPDH, as an endogenous control, and to normalise the parasite load. To obtain standard curves, serial dilutions of the DNA were prepared in appropriate plates for the assay. After normalising the results obtained on the samples, the parasite load was expressed as parasite equivalents/mL when evaluated in blood, or parasite equivalents/mg when in mouse tissue. In all trials, positive and negative controls were also tested in parallel.

[1] = test system: T. cruzi intracellular forms (Tulahuen strain) in L929 cell lines; assay: Drug combination (fixed-ratio, FICI) on intracellular forms of T. cruzi; type: cell-based, Trypanosoma cruzi; parameters: Drug concentration (EC50 in fixed-ratio series): unit not given here
Method: Drug combination on intracellular forms of T. cruzi - L929 were seeded in 96-well plates (4 x 10^3 cells/well) and infected with T. cruzi (Tulahuen strain). Predetermined EC50 values were used to determine the top concentrations of the test compounds under fixed ratios ensuring that EC50 fell in the midpoint of a seven-point two-fold dilution series. The fixed ratios were 5:0, 4:1, 3:2, 2:3, 1:4 and 0:5.[24] ^, [25] According to Odds (2003), the Fractional Inhibitory Concentration Indexes (FICI) was calculated by the ratio of the EC50 values of each ratio of the combinations/EC50 of each compound alone. Finally, the sum of the FICIs (ƩFICI) is calculated to classify the interaction nature of the combinations.[26] ΣFICI ≤ 0.5 = Synergism; ΣFICI between 0.5 and 4 = additive (No interaction); ΣFICI > 4 = antagonism. At least two independent experiments were performed in triplicate.

in vitro = type: cell-based; details: rat, Toxicity on H9C2 mammalian cells LC50
Method: (§1) Mammalian cell cultures - L929 fibroblast lineage were cultured in Roswell Park Memorial Institute 1640 medium without phenol red (RPMI - Sigma-Aldrich, St. Louis, MO, USA), supplemented with 10% foetal bovine serum (FBS - Cultilab - SP - Brazil) and 2 mM glutamine (Sigma-Aldrich, St. Louis, MO, USA) with pH 7.2 - 7.4, as previously reported.[21] H9C2, cardiomyoblast cultures, were maintained in Dulbecco’s Modified Eagle’s Medium (DMEM) high glucose (4500 mg/L) medium supplemented (Sigma-Aldrich, St. Louis, MO, USA) with 10% FBS (Cultilab - SP -Brazil), 2 mM glutamine (Sigma-Aldrich, St. Louis, MO, USA) and 100 μg/mL penicillin/streptomycin (Sigma-Aldrich, St. Louis, MO, USA).[22] Both cell cultures maintained at 37 °C under an atmosphere of 5% CO2, with weekly dissociation protocol using 0.01% trypsin.
(§2) Cytotoxicity assay - The toxicity of the compounds was evaluated on two mammalian cell lines (L929 and H9C2), as reported.[21] The cells were seeded in 96-well plates (4 x 10^3 cells/well - for L929; 25x10^3 cells/well - for H9C2) and incubated at 37 °C and 5% CO2. The L929 cultures were kept under treatment for 96 and 168 h with a serial dilution (1:2) of the compounds (up to 400 μM). After the treatment periods, the AlamarBlue® reagent (Thermo Fisher Scientific Inc) was added and incubated for 24 h. The H9C2 cultures were also treated in serial dilution up to 200 μM for 24 h. PrestoBlue® reagent (Thermo Fisher Scientific Inc) was added to the cultures and incubated for 3 h. All plates were analysed in the spectrophotometer SpectraMaxM3 (570 and 600 nm) and LC50 values (concentration capable of inducing loss of viability in 50% of the cells) determined.[21] All assays were done at least twice, in triplicates.

H9C2 mammalian cells = assay: cells; type: cell-based; details: for EC50: Rattus norvegicus, H9c2, 24 h, read-out: Toxicity on H9C2 mammalian cells pEC50 (converted)
Method: as §1, §2

[2] = test system: T. cruzi intracellular forms (Tulahuen strain) in L929 cell lines; assay: Washout assay in L929 cultures infected with T. cruzi; type: cell-based, Trypanosoma cruzi; details: 10 µM for 168 h, then 168 h drug-free
Method: Washout assays in L929 cultures infected with T. cruzi - L929 cultures were infected with Tulahuen strain as above described and incubated or not for 168 h with 10 µM of BZ and BTZ (37 °C/5% CO2). RPMI culture medium (containing the tested compounds) was replaced every 72 h. Then, the cultures were rinsed with 0.1M PBS, and the drug-free culture medium added for another 168 h, replacing it every 72 h. The number of parasites released into the supernatant and of intracellular forms were analysed by light microscopy and by spectrophotometry (570 nm) after adding CPRG, respectively. The results were expressed as the percentage of reduction in parasite growth compared to untreated cells. BZ was used as a positive treatment control.[25] The data results from two independent experiments done in at least triplicate.

SMILES | qPCR on blood samples, parasite DNA amplification (T. cruzi satDNA) | qPCR on blood samples, animals that amplified parasite DNA (T. cruzi satDNA) | FICI ([1]; proportion BTZ:BZ 0:5) | Drug concentration (EC50 in fixed-ratio series) ([1]; proportion BTZ:BZ 1:4) | FICI ([1]; proportion BTZ:BZ 1:4) | Drug concentration (EC50 in fixed-ratio series) ([1]; proportion BTZ:BZ 2:3) | FICI ([1]; proportion BTZ:BZ 2:3) | Drug concentration (EC50 in fixed-ratio series) ([1]; proportion BTZ:BZ 3:2) | FICI ([1]; proportion BTZ:BZ 3:2) | Drug concentration (EC50 in fixed-ratio series) ([1]; proportion BTZ:BZ 4:1) | FICI ([1]; proportion BTZ:BZ 4:1) | FICI ([1]; proportion BTZ:BZ 5:0) | CC50 at 24 h (in vitro) [µM] | EC50 (H9C2 mammalian cells) [µM] | Washout: reduction in the number of intracellular forms [2] | Washout: reduction in the number of released parasites [2] [%] | also measured
O=C(Cn1ccnc1[N+](=O)[O-])NCc1ccccc1 [BZ, benznidazole] | parasite DNA was amplified in all animals | only one animal | 1 | 0.138 | 0.10 | 0.219 | 0.15 | 0.402 | 0.28 | 0.738 | 0.51 | 0 | > 200 | > 200 | 98.6 ± 1.4% | 100 ± 0 | negative qPCR in cardiac samples (T. cruzi satDNA; BZ 100 mg/kg/day): 100%; Drug concentration (EC50 in fixed-ratio series) ([1]; proportion BTZ:BZ 0:5): 1.445
Clc1ccc(CCC(Cn2ccnc2)Sc2c(Cl)cccc2Cl)cc1 (stereo not shown) [BTZ, butoconazole] | negative (three of three animals) | only one animal | 0 | 0.008 | 0.26 | 0.012 | 0.37 | 0.006 | 0.20 | 0.024 | 0.76 | 1 | 36 ± 0.25 | 37.2 | > 96% and 96 - 98% and 96 ± 4% | 100 ± 0 | mice with negative qPCR in cardiac samples (T. cruzi satDNA; BTZ 184 mg/kg/day as printed): two of five; Drug concentration (EC50 in fixed-ratio series) ([1]; proportion BTZ:BZ 5:0): 0.031; CC50 (H9C2 mammalian cells; rat, 24 h): 36.36 ± 0.25 µM
